# Assay results taken from patent US12643867B2, “Compositions and uses thereof” (University of Virginia Patent Foundation, priority 2017, dated 2026).
# Key:
# [1] = target: T1, DGKA (Diacylglycerol kinase alpha) (Rattus norvegicus, UniProt P51556); test: SILAC LC-MS ATP acyl phosphate probe competition, recombinant DGK-HEK293T lysates; type: binding; conditions: ATP 1 mM, Ketanserin, Ritanserin 100 μM, RF001 1 mM; for SILAC ratio, DGKA C1 probe-modified peptide: site C1 (K237); for SILAC ratio, DGKA DAGKa probe-modified peptide: site DAGKa (K539); for SILAC ratio, DGKA DAGKc probe-modified peptide: site DAGKc (K377)
# T1 construct: expressed in transfected cells; host or cells: HEK293T (SILAC HEK293T for LC-MS)
# Procedure: All other vectors were gifted to Dr. Kevin Lynch (University of Virginia, School of Medicine) by Dr. Kaoru Goto (Yamagata University, School of Medicine) and Dr. Fumio Sakane (Chiba University) and were kindly shared with us: pcDNA3-FLAG-DGKA (rat), pCMV-Tag2B-FLAG-DGKQ (human), pcDNA3-DGKE-3×Flag (human), and pCMV-SPORT6-HA-DGKZ (human). HEK293T cells were plated at a concentration of 400,000 cells in complete DMEM and grown to 50-60% confluency. A polyethyleneimine (PEI) stock solution was prepared (1 mg/mL, pH 7.4) and filter sterilized. Serum-free DMEM (600 μL) was mixed gently with 2.6 μg DNA and 20 μL of sterile PEI (1 mg/mL, pH 7.4) in a sterile microfuge tube. Mixtures were incubated for 30 min at 25° C. The mixture was then added drop-wise to each 10 cm^2 plate, rocked back and forth to mix, and placed back in the incubator. Cell pellets were harvested after two full days of growth, snap-frozen in liquid N2, and stored at −80° C. until use. Recombinant proteins were produced by transient transfection in SILAC HEK293T cells using the procedure described above, except that cells were plated at a concentration of 1×10^6 cells per 10 cm^2 plate and grown to ˜70% confluency prior to introducing transfection mixture.
# (§1) Proteomes were diluted to 2 mg/ml in kinase buffer. The light and heavy proteomes (0.5 mg, 250 μL total reaction volume) were pre-treated with vehicle or compound, respectively (5 μL, DMSO (light) or 50× stock in DMSO (heavy)), mixed gently, and incubated at 25° C. for 30 min. […] After incubation, matched light and heavy proteomes were transferred and mixed in a 1:1 ratio in a two-dram vial containing 4:1:3 MeOH/CHCl3/H2O (2 mL MeOH, 500 AL CHCl3, 1.5 mL H2O) for extraction of proteins to remove excess probe, quickly vortexed, and centrifuged at 1,400×g for 3 min to pellet protein. Organic and aqueous layers were removed using a Pasteur pipette, and the protein pellet was transferred to a screw-top tube in 600 μL MeOH. A second extraction was performed by adding CHCl3 (150 μL) and H2O (600 μL) to each sample, vortexed, and centrifuged at 1,400×g for 3 min to pellet protein. Organic and aqueous layers were removed by pipetting. MeOH added to pellet (600 μL) and pellets were re-suspended by sonication (3×1 sec pulse, 20% amplitude) for a final extraction. Samples were then centrifuged at 17,000×g for 5 min to pellet protein and MeOH was removed by pipetting. […] To desalt the samples, each was transferred to a two-dram glass vial, and to the vial 4:1:2 MeOH/CHCl3/H2O (2 mL MeOH, 500 AL CHCl3, 1 mL H2O) was added. The vials were vortexed quickly, spun at 1.400×g for 3 min to pellet protein, and aqueous and organic layers were removed using a Pasteur pipette. The resulting protein pellet was transferred to a screw-top tube in 600 μL MeOH, and then CHCl3 (150 μL) and HO (600 μL) were added to extract protein a second time. The samples were vortexed quickly, centrifuged at 1,400×g to pellet protein, and the aqueous and organic layers were removed by pipetting. Resulting protein pellet was suspended in MeOH (600 μL) via sonication (3×1 sec pulse, 20% amplitude), centrifuged at 17,000×g for 5 min to pellet protein, and MeOH removed by pipetting. Protein pellets were then re-suspended in 25 mM ammonium bicarbonate (500 μL) and digested with 7.5 μg Trypsin/Lys-C(Promega, 15 μL, 0.5 μg/μL) for 3 h at 37° C. Avidin-agarose beads (Thermo Scientific Pierce, 100 AL aliquot per sample) were washed three times by adding 10 mL DPBS, centrifuged at 1,400×g for 1 min, and decanting. This wash step was repeated for a total of 3 times. Digested protein samples were mixed with washed avidin beads (100 μL) and brought to a volume of 5.5 mL with DPBS in a 15 mL conical and rotated for 1 h to enrich samples for the covalent desthiobiotin modification. The beads were washed with 25 mM ammonium bicarbonate (3× with 10 mL, centrifuge at 1,400×g for 3 min, decant) and then H2O (3× with 10 mL, centrifuge at 1,400×g for 3 min, decant).
# [2] = target: T2, PLK1 (Serine/threonine-protein kinase PLK1) (Homo sapiens, UniProt P53350); test: SILAC LC-MS ATP acyl phosphate probe competition, native kinases in HEK293T; type: binding; conditions: site Lys1; ATP 1 mM; Ketanserin, Ritanserin 100 μM; RF001 1 mM
# T2 construct: Native kinases; endogenous in cells; host or cells: HEK293T soluble proteome
# Procedure: as §1, with “Protein pellets were then re-suspended in 25 mM ammonium bicarbonate (500 μL) and digested with 7.5 μg Trypsin/Lys-C(Promega, 15 μL, 0.5 μg/μL) for 3 h at 37° C. Avidin-agarose beads (Thermo Scientific Pierce, 100 AL aliquot per sample) were washed three times by adding 10 mL DPBS, centrifuged at 1,400×g for 1 min, and decanting. This wash step was repeated for a total of 3 times. Digested protein samples were mixed with washed avidin beads (100 μL) and brought to a volume of 5.5 mL with DPBS in a 15 mL conical and rotated for 1 h to enrich samples for the covalent desthiobiotin modification. The beads were washed with 25 mM ammonium bicarbonate (3× with 10 mL, centrifuge at 1,400×g for 3 min, decant) and then H2O (3× with 10 mL, centrifuge at 1,400×g for 3 min, decant).” left out
# T1 sequence (P51556 whole entry): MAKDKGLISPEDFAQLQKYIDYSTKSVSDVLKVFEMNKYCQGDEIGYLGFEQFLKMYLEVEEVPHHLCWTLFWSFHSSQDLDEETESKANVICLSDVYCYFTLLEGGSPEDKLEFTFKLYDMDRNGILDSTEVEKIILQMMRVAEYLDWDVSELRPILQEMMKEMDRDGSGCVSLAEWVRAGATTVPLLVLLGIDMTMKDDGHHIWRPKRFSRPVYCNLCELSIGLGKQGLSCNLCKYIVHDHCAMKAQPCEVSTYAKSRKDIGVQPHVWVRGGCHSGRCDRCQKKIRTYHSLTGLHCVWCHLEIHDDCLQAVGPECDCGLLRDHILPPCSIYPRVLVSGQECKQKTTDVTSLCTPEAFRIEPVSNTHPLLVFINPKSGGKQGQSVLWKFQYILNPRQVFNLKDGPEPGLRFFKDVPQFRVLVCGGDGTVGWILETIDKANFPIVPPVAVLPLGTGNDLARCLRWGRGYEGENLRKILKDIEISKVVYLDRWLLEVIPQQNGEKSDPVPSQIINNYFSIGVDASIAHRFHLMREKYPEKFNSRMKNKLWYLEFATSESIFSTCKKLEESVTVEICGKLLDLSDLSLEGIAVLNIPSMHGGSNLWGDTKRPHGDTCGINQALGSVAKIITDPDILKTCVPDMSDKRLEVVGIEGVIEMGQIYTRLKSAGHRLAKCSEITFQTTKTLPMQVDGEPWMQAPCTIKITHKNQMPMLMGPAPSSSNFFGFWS
# T2 sequence (P53350 whole entry): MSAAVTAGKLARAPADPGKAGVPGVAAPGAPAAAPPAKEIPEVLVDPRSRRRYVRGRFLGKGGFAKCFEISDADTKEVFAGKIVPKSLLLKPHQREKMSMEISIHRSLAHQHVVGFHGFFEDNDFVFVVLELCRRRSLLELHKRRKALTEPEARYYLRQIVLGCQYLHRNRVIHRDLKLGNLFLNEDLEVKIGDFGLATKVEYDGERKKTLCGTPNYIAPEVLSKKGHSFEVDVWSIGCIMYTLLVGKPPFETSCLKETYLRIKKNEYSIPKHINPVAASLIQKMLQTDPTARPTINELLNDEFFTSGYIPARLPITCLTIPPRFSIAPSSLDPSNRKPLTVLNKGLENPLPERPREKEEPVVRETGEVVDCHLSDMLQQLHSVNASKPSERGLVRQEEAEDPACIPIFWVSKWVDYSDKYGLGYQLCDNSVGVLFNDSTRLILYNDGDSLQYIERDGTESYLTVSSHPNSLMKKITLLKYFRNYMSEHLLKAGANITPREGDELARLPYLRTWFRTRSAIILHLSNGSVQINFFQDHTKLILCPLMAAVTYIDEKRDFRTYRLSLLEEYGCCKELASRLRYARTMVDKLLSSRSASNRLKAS
compound,measurement,setting,value
O=C(c1ccc(F)cc1)C1CCN(CCn2c(=O)[nH]c3ccccc3c2=O)CC1 [Ketanserin],"SILAC ratio, DGKA C1 probe-modified peptide",[1],1.4
same,"SILAC ratio, DGKA DAGKa probe-modified peptide",[1],1.3
same,"SILAC ratio, DGKA DAGKc probe-modified peptide",[1],1.2
same,"SILAC ratio, PLK1 probe-modified peptide",[2],1.0
"Fc1ccc(C(=C2CCNCC2)c2ccc(F)cc2)cc1 [RF001, 4-(Bis(4-fluorophenyl)methylene) piperidine]","SILAC ratio, DGKA C1 probe-modified peptide",[1],12.6
same,"SILAC ratio, DGKA DAGKa probe-modified peptide",[1],9.1
same,"SILAC ratio, DGKA DAGKc probe-modified peptide",[1],1.7
same,"SILAC ratio, PLK1 probe-modified peptide",[2],0.9
Cc1nc2sccn2c(=O)c1CCN1CCC(=C(c2ccc(F)cc2)c2ccc(F)cc2)CC1 [Ritanserin],"SILAC ratio, DGKA C1 probe-modified peptide",[1],7.0
same,"SILAC ratio, DGKA DAGKa probe-modified peptide",[1],7.0
same,"SILAC ratio, DGKA DAGKc probe-modified peptide",[1],2.0
same,"SILAC ratio, PLK1 probe-modified peptide",[2],1.5
